Data: US10363248B2, “Salts of heterocyclic modulators of HIF activity for treatment of disease” (priority 2014, dated 2019)
Several values for one entry are separate records, joined by “and”; a condition that tells them apart may be missing. Identical values can stand only once. Entries after “also recorded” stand apart in the source; their conditions may differ. Counter-ions that a name gives are not always drawn. Like-named read-outs stand apart in the source and are kept apart here.

Key:
[1] = Plasma concentration-time data and PK parameters after a PO dose of 10 mg/kg in female CD1 nude mice (Groups 1-5)
Protocol: (§1) Pharmacokinetic studies were performed in female CD-1 nude mice. —Either 10 or 50 mg/kg of each test article was administered PO, QD in 0.5% methylcellulose aqueous solution or suspension. […] Plasma concentrations were analyzed using a LC/MS method and the pharmacokinetic parameters computed using a noncompartmental method.

Gli56 cells = assay: Glioblastoma cellular assay Gli56; assay type: cell-based; conditions: various concentrations
Excerpt: (§2) NB-1, Gli56, and D423 cell lines are deleted for ENO-1 (GLI56 and D423) or PGD, which renders them with reduced glycolytic capacity (Muller, F. et al., Nature, 2012, 488, 337-42).

[2] = Plasma concentration in female CD-1 nude mice, formulation groups A-C; assay type: in vivo; conditions: for concentration at 24 h: group mean; for concentration at 6 h: time point 6 h; for concentration at 6 h / concentration at 8 h: individual mouse; for concentration at 8 h: time point 8 h
Protocol: as §1

293T-HRE-GFP-luc cells = assay: Cell-based reporter assay for IC50 determinations; conditions: hypoxia for 6 hrs. (1% O2); luminescence; read-out: IC50 Classification
Protocol: IC50 values were calculated using a four-parameter logistic curve fit.

[3] = Dynamic vapor sorption (DVS); assay type: physicochemical; conditions: for DVS Sorption (%): weight gain from 0 to 80% RH, 25° C; for form transformation after DVS test: XRPD after DVS; for hygroscopicity classification: according to DVS result
Protocol: Transfer about 10 mg of sample into a DVS (DVS Advantage-1, SMS) and record the weight change with respect to the atmospheric humidity at 25° C. Use the following parameters: Equilibrium: dm/dt: 0.01%/min. (for min: 10 min and max: 180 min). Drying: 0% RH for 120 min RH (%) measurement step: 10%; RH (%) measurement step scope: 0-90-0%

TMD8 cells = assay: Diffuse large B-cell lymphoma (DLBCL) assay, viable cells; assay type: cell-based; conditions: varying concentrations, 7 days; Guava ViaCount; FIG. 1
Protocol: Equal number of TMD8 cells were plated and treated with varying concentrations of the compound of Example 80 for 7 days. Percent of viable cells was determined using Guava ViaCount reagents (EMD Millipore cat #4000-0040) that contains proprietary dyes that enable the determination of the number of live and dead cells in a sample (FIG. 1).

NB-1 cells = assay: Neuroblastoma cellular assay; assay type: cell-based; conditions: various concentrations
Excerpt: as §2

OCI-AML3 cells = assay: OCI-AML3 human leukemia model in NSG mice; assay type: in vivo, NSG nude mice; conditions: daily oral 10 mg/kg
Protocol: (§3) The OCI-AML3 cell line was treated with various concentrations of compound for 2 days and the percent of viable cells normalized to control cells treated with DMSO (FIG. 6). OCI-AML3 cells constitutively expressing luciferase were tail vein injected in NSG nude mice. 17 days after cell injection, luciferin was injected into animals and luciferase signal was measured using an IVIS imaging system to determine tumor burden and for randomization of subjects into study groups. On day 18, animals began receiving daily oral doses of vehicle or 10 mpk of the compound of Example 80 which continued throughout the study. On day 28, imaging was performed again to determine tumor burden (FIG. 7).

OCI-AML3 cell line = assay: Acute myeloid leukemia cell viability; assay type: cell-based; conditions: various concentrations, 2 days; normalized to DMSO; FIG. 6
Protocol: as §3

D423 cells = assay: Glioblastoma cellular assay D423; assay type: cell-based; conditions: various concentrations; FIG. 4
Excerpt: as §2

NB-1 xenografts = assay: NB-1 xenograft model; assay type: in vivo, CD-1 nude mice; conditions: daily oral treatment with 10 mg/kg; FIG. 5
[4] = time point 2 h, individual mice, PO, QD, 10 or 50 mg/kg, listed as A
[5] = time point 24 h, individual mice, PO, QD, 10 or 50 mg/kg, listed as A
[6] = female, CD-1 nude, mouse, in vivo, po, 10 mg/kg
[7] = female, CD-1 nude, mouse, oral, read-out: Calc. Conc.
[8] = female, CD-1 nude, mouse, oral, read-out: Calc. Conc. (ng/mL)
[9] = time point 2 h, individual mice, PO, QD, 10 or 50 mg/kg, listed as C, methanesulfonate
[10] = time point <24, individual mouse
[11] = time point 2 h, individual mice, PO, QD, 10 or 50 mg/kg, 2,2,2-trifluoroacetate
[12] = time point 24 h, individual mice, PO, QD, 10 or 50 mg/kg, 2,2,2-trifluoroacetate

## Cc1nc(-c2nc(-c3ccc(OC(F)(F)F)cc3)no2)nn1Cc1cccc(N2CCC(S(C)(=O)=O)CC2)c1.O=S(=O)(O)c1ccccc1 [BESYLATE SALT, 1-(3-((5-methyl-3-(3-(4-(trifluoromethoxy)phenyl)-1,2,4-oxadiazol-5-yl)-1H-1,2,4-triazol-1-yl)methyl)phenyl)-4-(methylsulfonyl)piperidin-1-ium benzenesulfonate]
[1]; mouse, in vivo, po
  oral bioavailability in comparison to the free base: improved oral bioavailability
  plasma concentrations compared with the free base: significantly higher

## Cc1nc(-c2nc(-c3ccc(OC(F)(F)F)cc3)no2)nn1Cc1cccc(N2CCC(S(C)(=O)=O)CC2)c1.Cl [5-(5-methyl-1-(3-(4-(methylsulfonyl)piperidin-1-yl)benzyl)-1H-1,2,4-triazol-3-yl)-3-(4-(trifluoromethoxy)phenyl)-1,2,4-oxadiazole hydrochloride]
[1]; mouse, in vivo, po
  plasma concentrations compared with the free base: significantly higher

## Cc1nc(-c2nc(-c3ccc(OC(F)(F)F)cc3)no2)nn1Cc1cccc(N2CCC(S(C)(=O)=O)CC2)c1.O=C(O)C(F)(F)F [5-(5-methyl-1-(3-(4-(methylsulfonyl)piperidin-1-yl)benzyl)-1H-1,2,4-triazol-3-yl)-3-(4-(trifluoromethoxy)phenyl)-1,2,4-oxadiazole 2,2,2-trifluoroacetate]
[1]; CD-1 mice, PO
  plasma concentrations compared with the free base: significantly higher

## Cc1nc(-c2nc(-c3ccc(OC(F)(F)F)cc3)no2)nn1Cc1cccc(N2CCC(S(C)(=O)=O)CC2)c1 [Example 80, 4-Methanesulfonyl-1-{3-[(5-methyl-3-{3-[4-(trifluoromethoxy)phenyl]-1,2,4-oxadiazol-5-yl}-1H-1,2,4-triazol-1-yl)methyl]phenyl}piperidine]
Gli56 cells
  cell death in Gli56 cells: cell death readily apparent
Gli56 cells; FIG. 3
  number of viable Gli56 cells: reduced number of viable cells; also recorded: cell numbers are significantly reduced
[2]; female, CD-1 nude, mouse, oral, time point 24 h, PO, QD, 10 or 50 mg/kg
  concentration at 24 h: 414 nM
[2]; time point 2 h, PO, QD, 10 or 50 mg/kg, listed as A
  concentration at 24 h: 561.2 nM
[2]; [4]
  Calc. Conc. (nM): 591.7 nM and 510.0 nM and 285.4 nM and 657.3 nM and 761.7 nM
  Calc. Conc. (ng/mL): 332.7 ng/mL and 286.7 ng/mL and 160.4 ng/mL and 369.5 ng/mL and 428.2 ng/mL
[2]; [5]
  Calc. Conc. (nM): 987.2 nM and 307.2 nM and 342.7 nM and 233.3 nM and 201.3 nM
  Calc. Conc. (ng/mL): 555.0 ng/mL and 172.7 ng/mL and 192.7 ng/mL and 131.2 ng/mL and 113.1 ng/mL
293T-HRE-GFP-luc cells
  IC50: < 100 nM
[1]; [6]
  AUCINF: 16.2 µM·h
  AUClast: 12.1 µM·h
  Cmax: 959 nM
  Terminal t1/2: 12.4 h
[1]; female, CD-1 nude, mouse, in vivo, po, 10 mg/kg, 0.083 hr
  Concentration Mean: 28.9 nM
[1]; female, CD-1 nude, mouse, in vivo, po, 10 mg/kg, 0.25 hr
  Concentration Mean: 280 nM
[1]; female, CD-1 nude, mouse, in vivo, po, 10 mg/kg, 0.5 hr
  Concentration Mean: 440 nM
[3]
  DVS Sorption (%): 0.16%
TMD8 cells
  number/percent of viable TMD8 cells: reduced number of viable cells; also recorded: respond robustly
NB-1 cells
  cell death in NB-1 cells: cell death readily apparent
NB-1 cells; FIG. 2
  number of viable NB-1 cells: reduced number of viable cells; also recorded: cell numbers are significantly reduced
OCI-AML3 cells; FIG. 7
  disease burden measured by IVIS imaging: reduces disease burden
OCI-AML3 cells; relative to vehicle, FIG. 8, 10 mg/kg
  survival: extends survival; also recorded: significantly increased their survival
OCI-AML3 cell line
  number of viable OCI-AML3 cells: reduced number of viable cells
D423 cells
  number of viable D423 cells: reduced number of viable cells; also recorded: cell numbers are significantly reduced
NB-1 xenografts
  growth of NB-1 xenografts (tumor growth): reduces the tumor growth

## CS(=O)(=O)O.Cc1nc(-c2nc(-c3ccc(OC(F)(F)F)cc3)no2)nn1Cc1cccc(N2CCC(S(C)(=O)=O)CC2)c1 [MESYLATE SALT, 1-(3-((5-methyl-3-(3-(4-(trifluoromethoxy)phenyl)-1,2,4-oxadiazol-5-yl)-1H-1,2,4-triazol-1-yl)methyl)phenyl)-4-(methylsulfonyl)piperidin-1-ium methanesulfonate]
[2]; [7]
  concentration at 6 h: 2950 nM
  concentration at 8 h: 2910 nM
[2]; [8]
  concentration at 6 h: 1660 ng/mL
  concentration at 8 h: 1640 ng/mL
[2]; time point 2 h, PO, QD, 10 or 50 mg/kg
  concentration at 24 h: 2249.9 nM
[2]; [9]
  Calc. Conc. (nM): 2676.0 nM and 1457.7 nM and 2725.3 nM and 2248.5 nM and 2141.9 nM
  Calc. Conc. (ng/mL): 1504.5 ng/mL and 819.5 ng/mL and 1532.2 ng/mL and 1264.1 ng/mL and 1204.2 ng/mL
[2]; [10]
  Calc. Conc. (nM): 1469.8 nM
  Calc. Conc. (ng/mL): 826.3 ng/mL
[1]; mouse, in vivo, po
  oral bioavailability in comparison to the free base: improved oral bioavailability
  plasma concentrations compared with the free base: significantly higher
[3]
  form transformation after DVS test: No form transformation was observed
  hygroscopicity classification: hygroscopic
  DVS Sorption (%): 2.47%

## Cc1nc(-c2nc(-c3ccc(OC(F)(F)F)cc3)no2)nn1Cc1cccc(N2CCC(S(C)(=O)=O)CC2)c1 [HYDROCHLORIDE SALT, 5-(5-methyl-1-(3-(4-(methylsulfonyl)piperidin-1-yl)benzyl)-1H-1,2,4-triazol-3-yl)-3-(4-(trifluoromethoxy)phenyl)-1,2,4-oxadiazole hydrochloride]
[1]; mouse, in vivo, po
  oral bioavailability in comparison to the free base: improved oral bioavailability
[3]
  form transformation after DVS test: No form transformation was observed
  hygroscopicity classification: slightly hygroscopic
[3]; listed as HCl, hydrochloride
  DVS Sorption (%): 1.59%
[3]; listed as hydrochloride candidate, hydrochloride
  DVS Sorption (%): 1.59%

## Cc1nc(-c2nc(-c3ccc(OC(F)(F)F)cc3)no2)nn1Cc1cccc(N2CCC(S(C)(=O)=O)CC2)c1 [B, 5-(5-methyl-1-(3-(4-(methylsulfonyl)piperidin-1-yl)benzyl)-1H-1,2,4-triazol-3-yl)-3-(4-(trifluoromethoxy)phenyl)-1,2,4-oxadiazole 2,2,2-trifluoroacetate]
[2]; time point 2 h, PO, QD, 10 or 50 mg/kg, 2,2,2-trifluoroacetate
  concentration at 24 h: 834.8 nM
[2]; [11]
  Calc. Conc. (nM): 1131.9 nM and 748.0 nM and 793.6 nM and 632.1 nM and 868.2 nM
  Calc. Conc. (ng/mL): 636.4 ng/mL and 420.5 ng/mL and 446.2 ng/mL and 355.4 ng/mL and 488.1 ng/mL
[2]; time point 24 h, PO, QD, 10 or 50 mg/kg, 2,2,2-trifluoroacetate
  concentration at 24 h: 776.4 nM
[2]; [12]
  Calc. Conc. (nM): 1426.5 nM and 220.7 nM and 1116.1 nM and 490.3 nM and 628.2 nM
  Calc. Conc. (ng/mL): 802.0 ng/mL and 124.1 ng/mL and 627.5 ng/mL and 275.6 ng/mL and 353.2 ng/mL
